Measurements reported in patent publication US7763596B2, “Selective glucocorticoid receptor agonists” (The University of Manchester, priority 2000, dated 2010).
“Also recorded” adds a separate entry of the source.

Experiments:
[1] = tested on: tyrosine amino transferase (TAT); experiment: Quantitation of endogenous tyrosine amino transferase (TAT) in the HEPG2 liver cell line; assay type: cell-based, human; conditions: HEPG2, 1 μM; p=0.014, two tailed t-test
Excerpt: The HEP G2 cell line (ECACC: 85011430) is derived from human liver epithelial cells from a well differentiated hepatocellular carcinoma. This cell line has functional endogenous GR and is stimulated by GR activation to produce tyrosine amino transferase.
In this method a colourimetric approach is used to quantitate TAT activity. The TAT enzyme catalyses the following reaction: L-tyrosine+2-oxoglutarate⇄4-hydroxyphenylpyruvate (pHPP)+L-glutamate
This reaction also requires pyridoxal phosphate (PLP) as a co-factor.
Strong alkali conditions can then be used to convert pHPP to p-hydroxybenzaldehyde (pHBA) and oxalate. The amount of pHBA can then be assessed by measuring its absorbance at 331 nm (extinction coefficient 19,900 M^−1cm^−1) this figure is then assumed to be directly proportional to TAT activity. HEPG2 cells were cultivated till confluent on a 10 cm plate (˜10^7 cells). These cells were then scraped off and suspended in 500 μl of ice cold 0.14M KCl. The cells were lysed by 3 cycles of 10 second burst sonication at full power (50 W, 20 kHz Sonicator; Jencons, Leighton Buzzard, UK). The cells were kept on ice between each burst. […]
For each reaction a control reaction was set up without the ketoglutarate. […] The samples were incubated at room temperature for a further 30 mins and then the absorbance of each sample was assessed at 331 nm on a spectrophotometer (Ultrospec III, Pharmacia).

progesterone receptor = target: T1, progesterone receptor (Homo sapiens, UniProt P06401); experiment: Classic receptor binding assay, progesterone receptor (data not shown)
T1 sequence (P06401 1-933): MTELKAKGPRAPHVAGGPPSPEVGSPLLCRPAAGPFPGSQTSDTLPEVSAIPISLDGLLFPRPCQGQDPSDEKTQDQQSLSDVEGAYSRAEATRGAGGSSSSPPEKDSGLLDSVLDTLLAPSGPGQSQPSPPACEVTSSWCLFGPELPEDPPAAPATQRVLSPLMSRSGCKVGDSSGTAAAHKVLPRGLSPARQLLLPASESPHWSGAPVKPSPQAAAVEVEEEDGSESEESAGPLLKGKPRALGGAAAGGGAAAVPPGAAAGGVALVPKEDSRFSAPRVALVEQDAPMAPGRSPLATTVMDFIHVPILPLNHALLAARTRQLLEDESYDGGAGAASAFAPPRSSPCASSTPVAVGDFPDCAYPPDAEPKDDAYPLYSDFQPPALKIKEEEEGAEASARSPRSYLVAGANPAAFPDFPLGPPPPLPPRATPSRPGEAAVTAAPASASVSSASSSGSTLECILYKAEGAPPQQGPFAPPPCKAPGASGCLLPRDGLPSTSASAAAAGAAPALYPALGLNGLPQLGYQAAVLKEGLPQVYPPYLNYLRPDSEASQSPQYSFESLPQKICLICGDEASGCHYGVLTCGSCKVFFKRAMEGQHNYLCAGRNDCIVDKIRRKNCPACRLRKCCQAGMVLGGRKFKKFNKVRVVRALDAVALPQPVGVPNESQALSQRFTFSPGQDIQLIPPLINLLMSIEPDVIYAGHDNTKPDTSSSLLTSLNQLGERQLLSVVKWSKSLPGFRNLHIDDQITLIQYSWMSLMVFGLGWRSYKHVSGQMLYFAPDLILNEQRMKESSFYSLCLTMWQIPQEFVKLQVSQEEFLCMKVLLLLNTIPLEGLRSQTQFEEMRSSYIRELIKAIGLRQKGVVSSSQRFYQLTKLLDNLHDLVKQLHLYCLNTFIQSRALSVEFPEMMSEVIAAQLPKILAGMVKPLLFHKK

[2] = tested on: other members of the steroid receptor super family; experiment: Binding to other members of the steroid receptor super family
glucocorticoid receptor [3] = target: T2, glucocorticoid receptor (Homo sapiens, UniProt P04150); experiment: Ligand binding competition assay, 3H Dexamethasone; parameters: Human HeLa 53 cells; endogenous in cells; conditions: Human HeLa 53 cells, 2 hours @25° C.
T2 sequence (P04150 1-777): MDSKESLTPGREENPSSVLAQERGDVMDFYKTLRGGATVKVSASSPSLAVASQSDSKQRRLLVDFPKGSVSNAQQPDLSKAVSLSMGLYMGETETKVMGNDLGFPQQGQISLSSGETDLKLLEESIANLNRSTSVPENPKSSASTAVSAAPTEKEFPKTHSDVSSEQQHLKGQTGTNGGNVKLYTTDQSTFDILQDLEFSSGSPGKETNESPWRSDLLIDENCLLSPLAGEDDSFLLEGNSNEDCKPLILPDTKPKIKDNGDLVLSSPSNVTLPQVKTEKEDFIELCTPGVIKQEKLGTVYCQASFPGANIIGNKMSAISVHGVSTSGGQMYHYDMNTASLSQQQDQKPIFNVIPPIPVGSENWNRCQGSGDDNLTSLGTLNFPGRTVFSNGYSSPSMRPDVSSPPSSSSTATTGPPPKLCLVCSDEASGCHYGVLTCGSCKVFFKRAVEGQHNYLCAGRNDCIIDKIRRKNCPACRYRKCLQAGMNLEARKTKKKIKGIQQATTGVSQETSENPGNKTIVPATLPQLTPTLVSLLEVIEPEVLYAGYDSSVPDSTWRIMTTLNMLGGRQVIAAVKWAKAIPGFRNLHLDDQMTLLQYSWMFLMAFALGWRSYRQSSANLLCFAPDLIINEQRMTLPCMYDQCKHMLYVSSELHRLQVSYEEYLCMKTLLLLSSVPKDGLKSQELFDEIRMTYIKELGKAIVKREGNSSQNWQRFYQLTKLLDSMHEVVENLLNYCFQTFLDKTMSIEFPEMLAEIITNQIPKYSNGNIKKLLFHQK
Procedure: Binding of compound G to the glucocorticoid receptor was investigated using a standard competition assay. The conditions were as follows:
IC50 values were determined by a non-linear, least squares regression The KI values were calculated using the equation of Cheng and Prusoff using the observed IC50 of the test compound, the concentration of radioligand employed in the assay, and the historic values for the Kd for the ligand. The Hill coefficient (nH), defined as the slope of the competitive binding curve, was calculated.

glucocorticoid receptor [4] = target: T2, glucocorticoid receptor; experiment: Selectivity for transrepression over transactivation in vitro; assay type: cell-based; parameters: expressed in transfected cells; host or cells: COS 7 (African green monkey kidney, deficient in endogenous GR)

CCCNC(=O)C1(O)C(C)CC2C3CCC4=CC(=O)C=CC4(C)C3(F)C(O)CC21C (centres unmarked) [Compound G]
TAT activity compared to dexamethasone [1]: significant reduction in TAT activity | binding to the progesterone receptor (progesterone receptor): not to bind to the progesterone receptor | binding to other members of the steroid receptor super family [2]: not to bind to other members of the steroid receptor super family | binding to the glucocorticoid receptor, competition with 3H Dexamethasone (glucocorticoid receptor [3]): bound to the glucocoticoid receptor; also recorded: right shifted when compared to dexamethasone; also recorded: less potent ligand than dexamethasone | selectivity for transrepression over transactivation (glucocorticoid receptor [4]): approximately 1000 fold
